{"source": "patent US4101556A", "about": "“Total synthesis of 2,5-dideoxystreptamines” (Bristol-Myers Company, priority 1977, dated 1978)", "key": {"P. rettgeri 9637": {"tested_on": "P. rettgeri 9637", "test": "Minimum Inhibitory Concentration against P. rettgeri 9637", "format": "cell-based", "conditions": "Providencia rettgeri, Mueller-Hinton Broth, 10^-4 organism dilution, read-out: M.I.C. (Minimum Inhibitory Concentration)", "source_text": "(§1) Minimum Inhibitory Concentration Of\n(§2) 5-deoxykanamycin A Against Various\n(§3) Microorganisms (mcg./ml.)\n(§4) ^a = 45% Antibiotic Assay Broth, 50% Mueller-Hinton Broth and 5%\n(§5) serum. All others are Mueller-Hinton Broth.\n(§6) ^b = 10^-3 Organism dilution. All others are 10^-4 organism"}, "P. aerug. 20653": {"tested_on": "P. aerug. 20653", "test": "Minimum Inhibitory Concentration against P. aerug. 20653", "format": "cell-based", "conditions": "Mueller-Hinton Broth, 10^-4 organism dilution, read-out: M.I.C. (Minimum Inhibitory Concentration)", "source_text": "as §1, §2, §3, §4, §5, §6"}, "S. aureus 9537": {"tested_on": "S. aureus 9537", "test": "Minimum Inhibitory Concentration against S. aureus 9537", "format": "cell-based", "conditions": "Staphylococcus aureus, Mueller-Hinton Broth, 10^-4 organism dilution, read-out: M.I.C. (Minimum Inhibitory Concentration)", "source_text": "as §1, §2, §3, §4, §5, §6"}, "E. cloacae 9656": {"tested_on": "E. cloacae 9656", "test": "Minimum Inhibitory Concentration against E. cloacae 9656", "format": "cell-based", "conditions": "Enterobacter cloacae, Mueller-Hinton Broth, 10^-4 organism dilution, read-out: M.I.C. (Minimum Inhibitory Concentration)", "source_text": "as §1, §2, §3, §4, §5, §6"}, "E. coli 9632": {"tested_on": "E. coli 9632", "test": "Minimum Inhibitory Concentration against E. coli 9632", "format": "cell-based", "conditions": "Escherichia coli, Mueller-Hinton Broth, 10^-3 organism dilution, read-out: M.I.C. (Minimum Inhibitory Concentration)", "source_text": "as §1, §2, §3, §4, §5, §6"}, "K. pneum. 9977": {"tested_on": "K. pneum. 9977", "test": "Minimum Inhibitory Concentration against K. pneum. 9977", "format": "cell-based", "conditions": "Mueller-Hinton Broth, 10^-4 organism dilution, read-out: M.I.C. (Minimum Inhibitory Concentration)", "source_text": "as §1, §2, §3, §4, §5, §6"}, "S. marc. 20019": {"tested_on": "S. marc. 20019", "test": "Minimum Inhibitory Concentration against S. marc. 20019", "format": "cell-based", "conditions": "Mueller-Hinton Broth, 10^-4 organism dilution, read-out: M.I.C. (Minimum Inhibitory Concentration)", "source_text": "as §1, §2, §3, §4, §5, §6"}, "E. coli 20732": {"tested_on": "E. coli 20732", "test": "Minimum Inhibitory Concentration against E. coli 20732", "format": "cell-based", "conditions": "Escherichia coli, Mueller-Hinton Broth, 10^-3 organism dilution, read-out: M.I.C. (Minimum Inhibitory Concentration)", "source_text": "as §1, §2, §3, §4, §5, §6"}, "P. stuartii 20894": {"tested_on": "P. stuartii 20894", "test": "Minimum Inhibitory Concentration against P. stuartii 20894", "format": "cell-based", "conditions": "Providencia stuartii, Mueller-Hinton Broth, 10^-3 organism dilution, read-out: M.I.C. (Minimum Inhibitory Concentration)", "source_text": "as §1, §2, §3, §4, §5, §6"}, "P. aerug. 20741": {"tested_on": "P. aerug. 20741", "test": "Minimum Inhibitory Concentration against P. aerug. 20741", "format": "cell-based", "conditions": "Mueller-Hinton Broth, 10^-4 organism dilution, read-out: M.I.C. (Minimum Inhibitory Concentration)", "source_text": "as §1, §2, §3, §4, §5, §6"}, "P. aerug. 21509": {"tested_on": "P. aerug. 21509", "test": "Minimum Inhibitory Concentration against P. aerug. 21509", "format": "cell-based", "conditions": "Mueller-Hinton Broth, 10^-4 organism dilution, read-out: M.I.C. (Minimum Inhibitory Concentration)", "source_text": "as §1, §2, §3, §4, §5, §6"}, "E. coli 20895": {"tested_on": "E. coli 20895", "test": "Minimum Inhibitory Concentration against E. coli 20895", "format": "cell-based", "conditions": "Escherichia coli, Mueller-Hinton Broth, 10^-3 organism dilution, read-out: M.I.C. (Minimum Inhibitory Concentration)", "source_text": "as §1, §2, §3, §4, §5, §6"}, "E. coli 21218": {"tested_on": "E. coli 21218", "test": "Minimum Inhibitory Concentration against E. coli 21218", "format": "cell-based", "conditions": "Escherichia coli, Mueller-Hinton Broth, 10^-3 organism dilution, read-out: M.I.C. (Minimum Inhibitory Concentration)", "source_text": "as §1, §2, §3, §4, §5, §6"}, "E. cloacae 21006": {"tested_on": "E. cloacae 21006", "test": "Minimum Inhibitory Concentration against E. cloacae 21006", "format": "cell-based", "conditions": "Enterobacter cloacae, Mueller-Hinton Broth, 10^-3 organism dilution, read-out: M.I.C. (Minimum Inhibitory Concentration)", "source_text": "as §1, §2, §3, §4, §5, §6"}, "P. rettgeri 21207": {"tested_on": "P. rettgeri 21207", "test": "Minimum Inhibitory Concentration against P. rettgeri 21207", "format": "cell-based", "conditions": "Providencia rettgeri, Mueller-Hinton Broth, 10^-3 organism dilution, read-out: M.I.C. (Minimum Inhibitory Concentration)", "source_text": "as §1, §2, §3, §4, §5, §6"}, "S. aureus 20240": {"tested_on": "S. aureus 20240", "test": "Minimum Inhibitory Concentration against S. aureus 20240", "format": "cell-based", "conditions": "Staphylococcus aureus, Mueller-Hinton Broth, 10^-4 organism dilution, read-out: M.I.C. (Minimum Inhibitory Concentration)", "source_text": "as §1, §2, §3, §4, §5, §6"}, "P. aerug. 9843A": {"tested_on": "P. aerug. 9843A", "test": "Minimum Inhibitory Concentration against P. aerug. 9843A", "format": "cell-based", "conditions": "Mueller-Hinton Broth, 10^-4 organism dilution, read-out: M.I.C. (Minimum Inhibitory Concentration)", "source_text": "as §1, §2, §3, §4, §5, §6"}, "S. aureus 9606": {"tested_on": "S. aureus 9606", "test": "Minimum Inhibitory Concentration against S. aureus 9606", "format": "cell-based", "conditions": "Staphylococcus aureus, Mueller-Hinton Broth, 10^-4 organism dilution, read-out: M.I.C. (Minimum Inhibitory Concentration)", "source_text": "as §1, §2, §3, §4, §5, §6"}, "P. aerug. 20717": {"tested_on": "P. aerug. 20717", "test": "Minimum Inhibitory Concentration against P. aerug. 20717", "format": "cell-based", "conditions": "Mueller-Hinton Broth, 10^-4 organism dilution, read-out: M.I.C. (Minimum Inhibitory Concentration)", "source_text": "as §1, §2, §3, §4, §5, §6"}, "E. coli 20683": {"tested_on": "E. coli 20683", "test": "Minimum Inhibitory Concentration against E. coli 20683", "format": "cell-based", "conditions": "Escherichia coli, Mueller-Hinton Broth, 10^-3 organism dilution, read-out: M.I.C. (Minimum Inhibitory Concentration)", "source_text": "as §1, §2, §3, §4, §5, §6"}, "S. marc. 20460": {"tested_on": "S. marc. 20460", "test": "Minimum Inhibitory Concentration against S. marc. 20460", "format": "cell-based", "conditions": "Mueller-Hinton Broth, 10^-4 organism dilution, read-out: M.I.C. (Minimum Inhibitory Concentration)", "source_text": "as §1, §2, §3, §4, §5, §6"}, "P. mirab. 9900": {"tested_on": "P. mirab. 9900", "test": "Minimum Inhibitory Concentration against P. mirab. 9900", "format": "cell-based", "conditions": "Mueller-Hinton Broth, 10^-4 organism dilution, read-out: M.I.C. (Minimum Inhibitory Concentration)", "source_text": "as §1, §2, §3, §4, §5, §6"}, "E. coli 20665": {"tested_on": "E. coli 20665", "test": "Minimum Inhibitory Concentration against E. coli 20665", "format": "cell-based", "conditions": "Escherichia coli, Mueller-Hinton Broth, 10^-3 organism dilution, read-out: M.I.C. (Minimum Inhibitory Concentration)", "source_text": "as §1, §2, §3, §4, §5, §6"}, "P. stuartii 21210": {"tested_on": "P. stuartii 21210", "test": "Minimum Inhibitory Concentration against P. stuartii 21210", "format": "cell-based", "conditions": "Providencia stuartii, Mueller-Hinton Broth, 10^-4 organism dilution, read-out: M.I.C. (Minimum Inhibitory Concentration)", "source_text": "as §1, §2, §3, §4, §5, §6"}, "S. pyogenes 9604": {"tested_on": "S. pyogenes 9604", "test": "Minimum Inhibitory Concentration against S. pyogenes 9604", "format": "cell-based", "conditions": "Streptococcus pyogenes, 45% Antibiotic Assay Broth, 50% Mueller-Hinton Broth and 5% serum, 10^-3 organism dilution, read-out: M.I.C. (Minimum Inhibitory Concentration)", "source_text": "as §1, §2, §3, §4, §5, §6"}, "E. cloacae 20364": {"tested_on": "E. cloacae 20364", "test": "Minimum Inhibitory Concentration against E. cloacae 20364", "format": "cell-based", "conditions": "Enterobacter cloacae, Mueller-Hinton Broth, 10^-3 organism dilution, read-out: M.I.C. (Minimum Inhibitory Concentration)", "source_text": "as §1, §2, §3, §4, §5, §6"}, "S. pneum. 9585": {"tested_on": "S. pneum. 9585", "test": "Minimum Inhibitory Concentration against S. pneum. 9585", "format": "cell-based", "conditions": "Mueller-Hinton Broth, 10^-4 organism dilution, read-out: M.I.C. (Minimum Inhibitory Concentration)", "source_text": "as §1, §2, §3, §4, §5, §6"}, "P. aerug. 20601": {"tested_on": "P. aerug. 20601", "test": "Minimum Inhibitory Concentration against P. aerug. 20601", "format": "cell-based", "conditions": "Mueller-Hinton Broth, 10^-4 organism dilution, read-out: M.I.C. (Minimum Inhibitory Concentration)", "source_text": "as §1, §2, §3, §4, §5, §6"}, "[1]": {"conditions": "background statement on positional isomers; cited from earlier work"}}, "data": [{"smiles": "NC[C@H]1O[C@H](O[C@H]2C[C@@H](O[C@H]3O[C@H](CO)[C@@H](O)[C@H](N)[C@H]3O)[C@H](N)C[C@@H]2N)[C@H](O)[C@@H](O)[C@@H]1O", "note": "[5-deoxykanamycin A, 5-Deoxykanamycin A]", "values": [{"measurement": "MIC", "setting": "P. rettgeri 9637", "value": 1, "unit": "µg/mL"}, {"measurement": "MIC", "setting": "P. aerug. 20653", "value": "> 125", "unit": "µg/mL"}, {"measurement": "MIC", "setting": "S. aureus 9537", "value": 2, "unit": "µg/mL"}, {"measurement": "MIC", "setting": "E. cloacae 9656", "value": 8, "unit": "µg/mL"}, {"measurement": "MIC", "setting": "E. coli 9632", "value": 8, "unit": "µg/mL"}, {"measurement": "MIC", "setting": "K. pneum. 9977", "value": 1, "unit": "µg/mL"}, {"measurement": "MIC", "setting": "S. marc. 20019", "value": 32, "unit": "µg/mL"}, {"measurement": "MIC", "setting": "E. coli 20732", "value": 125, "unit": "µg/mL"}, {"measurement": "MIC", "setting": "P. stuartii 20894", "value": 32, "unit": "µg/mL"}, {"measurement": "MIC", "setting": "P. aerug. 20741", "value": "> 125", "unit": "µg/mL"}, {"measurement": "MIC", "setting": "P. aerug. 21509", "value": "> 125", "unit": "µg/mL"}, {"measurement": "MIC", "setting": "E. coli 20895", "value": 8, "unit": "µg/mL"}, {"measurement": "MIC", "setting": "E. coli 21218", "value": "> 125", "unit": "µg/mL"}, {"measurement": "MIC", "setting": "E. cloacae 21006", "value": "> 125", "unit": "µg/mL"}, {"measurement": "MIC", "setting": "P. rettgeri 21207", "value": 16, "unit": "µg/mL"}, {"measurement": "MIC", "setting": "S. aureus 20240", "value": "> 125", "unit": "µg/mL"}, {"measurement": "MIC", "setting": "P. aerug. 9843A", "value": "> 125", "unit": "µg/mL"}, {"measurement": "MIC", "setting": "S. aureus 9606", "value": 4, "unit": "µg/mL"}, {"measurement": "MIC", "setting": "P. aerug. 20717", "value": "> 125", "unit": "µg/mL"}, {"measurement": "MIC", "setting": "E. coli 20683", "value": "> 125", "unit": "µg/mL"}, {"measurement": "MIC", "setting": "S. marc. 20460", "value": "> 125", "unit": "µg/mL"}, {"measurement": "MIC", "setting": "P. mirab. 9900", "value": 32, "unit": "µg/mL"}, {"measurement": "MIC", "setting": "E. coli 20665", "value": "> 125", "unit": "µg/mL"}, {"measurement": "MIC", "setting": "P. stuartii 21210", "value": 4, "unit": "µg/mL"}, {"measurement": "MIC", "setting": "S. pyogenes 9604", "value": 125, "unit": "µg/mL"}, {"measurement": "MIC", "setting": "E. cloacae 20364", "value": "> 125", "unit": "µg/mL"}, {"measurement": "MIC", "setting": "S. pneum. 9585", "value": 125, "unit": "µg/mL"}, {"measurement": "MIC", "setting": "P. aerug. 20601", "value": "> 125", "unit": "µg/mL"}]}, {"smiles": "NC[C@H]1O[C@H](O[C@H]2[C@H](O)[C@@H](O)[C@H](N)C[C@@H]2N)[C@H](N)[C@@H](O)[C@@H]1O", "note": "[neamine, 4-0-(2,6-dideoxy-2,6-diamino-α-D-glycopynanosyl) 2-deoxystreptamine]", "values": [{"measurement": "antibiotic activity", "setting": "[1]", "value": "biologically active"}]}]}
